Assay results taken from patent US5016655A, “Cigarette manufacturing process” (priority 1989, dated 1991).
Entries after “also recorded” stand apart in the source; their conditions may differ. Like-named read-outs stand apart in the source and are kept apart here.

Columns and labels:
[1] = cited from earlier work; for Boiling Point: Table V
human = conditions: cited from earlier work
[2] = tested on: nitrosamine formation on epithelial membranes; tumor development; conditions: cited from earlier work
[3] = tested on: localization of radioactivity ([14C]NNN) in salivary duct and bronchial epithelium and liver; experiment: whole-body autoradiography of [14C]NNN localization after oral alcohols (Example 1, FIG. 1); type: in vivo, male C57BL/6J mice
Experimental: One hour later, the mice were anesthetized lightly with ether and frozen by immersion in dry ice/hexane. Twenty u-thick whole-body sagittal sections of the frozen mice were taken onto Scotch tape and were then processed for whole-body autoradiography by known methods. See W. Waddell et al., Drug Fate and Metabolism: Methods and Techniques, E. R. Garrett and J. L. Hirtz, Eds. […] Photometric density in areas of the developed autoradiographs was measured with an ADG Instruments photometer and a photocell with an aperture of three mm lying on the easel of a photographic enlarger. The X-ray film was placed in the enlarger and raised to produce a magnification of thirty-five times on the easel.
NNN. […] (Twenty minutes is the average time it takes for alcohols introduced by oral intubation into mice to reach the peak blood level.)
The number within each bar thereof represents the dose in g/kg of that alcohol which was administered orally twenty minutes before the [^14 C] NNN was given intraveously. The mice were frozen one hour after receiving the [^14 C] NNN. The means for each mouse were from fifteen measurements on random areas of that site (five absorbancies on each of three autoradiographs) after setting blood in each on zero.

[4] = tested on: localization of radioactivity ([14C]NNN) in bronchial epithelium; experiment: orally administered alcohols, localization of radioactivity after intravenous [14C]NNN; type: in vivo, mice; conditions: gavage 1.0 g/kg, 20 min before iv [14C]NNN
Experimental: For each of these alcohols, the mouse was fasted overnight, the alcohol in aqueous solution at a dose of 1.0 g/kg was administered by gavage and after twenty minutes the [^14 C]NNN was injected intravenously. All mice were sacrificed one hour after the [^14 C]NNN treatment and processed for whole-body autoradiography,as described previously.

rats = conditions: cited from earlier work
[5] = tested on: localization of radioactivity ([14C]NNN) in bronchial epithelium; experiment: effect of substances on localization of radioactivity one hour after intravenous [14C]NNN (Table VI); type: in vivo, mice; conditions: for decrease in the localization of radioactivity in bronchial epithelium: one hour after intravenous [14C]NNN; for decrease in the localization of radioactivity in bronchial epithelium / response on the uptake of radioactivity in the bronchial epithelium: solids at ambient temperature
Excerpt: Table VI below lists the compounds tested for their effect on the localization of radioactivity in bronchial epithelium one hour after intravenous administration of [^14 C]NNN. Unless indicated otherwise, the compounds were parenterally administered acutely at various times prior to [^14 C]NNN. In many cases only one mouse was studied for each compound. […].
Effect of substances on the localization of radioactivity in bronchial epithelium of mice one hour after intravenously receiving [^14 C] nitrosonornicotine.
For all the remaining compounds the general protocol was to administer the potential blocker some minutes prior to administration of the [^14 C]NNN. Potential blockers were given orally, intraperitoneally or by inhalation, and the [^14 C]NNN was given intravenously.

[6] = tested on: localization of radioactivity of [14C]NNN in bronchial epithelium; experiment: alcohols by inhalation, localization of radioactivity of [14C]NNN (Table VII); type: in vivo, mice; conditions: for potency as inhibitor in mice: mouse, in vivo
Experimental: Additional alcohols were tested for their effects on the localization of radioactivity of [^14 C]NNN in bronchial epithelium when the alcohols were administered by inhalation. For these studies, two ml of the alcohol were placed in the bottom of a 600 ml glass beaker. A wire mesh platform was constructed so that the mouse was positioned approximately three-quarter to one inch above the alcohol. The beaker was kept tightly sealed unless otherwise indicated. All mice were fasted overnight, except where noted, and sacrificed one hour after intravenous [^14 C]NNN administration. These mice were also processed for whole-body autoradiography. Although the protocols varied slightly as summarized below, these minor differences should not effect the results.
A. Exposures in beakers maintained at 50° C. (plus or minus
B. Exposure in beakers at room temperature. Beakers were
C. Beakers equilibrated with alcohols at least 20 min in […]

[7] = tested on: localization of nitrosamines (NNN, NNK) in tissues; experiment: nitrosamine delocalization / blocking, general statements; conditions: in vivo

CC(C)(O)C(C)(C)O [Pinacol]
Boiling Point [1]: 174 °C | Toxicity (human; Table V): Low-toxicity

vitamin E
effect on formation of nitrosamines on epithelial membranes [2]: prevent the formation of nitrosamines

CC(C)(C)O [t-butanol]
localization of [14C]NNN in bronchial epithelium ([3]; high dosage): almost completely abolished; also recorded: greatest inhibition

CC(C)CO [isobutyl alcohol, isobutanol]
decrease in the localization of radioactivity in bronchial epithelium [4]: significant decrease | Acute Oral LD50 (rats; rats, oral): 2.46 q/kg

CCCCCCCCCCCCCCCCO [Cetyl alcohol, hexadecanol]
Boiling Point [1]: 344 °C | Toxicity (human; Table V): Non-toxic | Toxicity (human): non-toxic

OCC=Cc1ccccc1 [Cinnamyl alcohol]
Boiling Point [1]: 257.5 °C

CCC(C)O (centres unmarked) [sec-butyl alcohol, sec-butanol]
decrease in the localization of radioactivity in bronchial epithelium [4]: significant decrease

c1ccc2ccccc2c1 [naphthalene]
decrease in the localization of radioactivity in bronchial epithelium [5]: significant decrease

CC1=C(/C=C/C(C)=C/C=C/C(C)=C/C(=O)O)C(C)(C)CCC1 [retinoic acid]
response on the uptake of radioactivity in the bronchial epithelium [5]: minimal response

CCCCCCCCO [n-Octyl alcohol]
Boiling Point [1]: 86 °C | Toxicity (human; Table V): Flavor agent

C#CCN(C)Cc1ccccc1 [parqyline]
response on the uptake of radioactivity in the bronchial epithelium [5]: minimal response

CCCCC(CC)CO (centres unmarked) [2-ethyl hexanol]
Toxicity (human; Table V): Low-toxicity | Acute Oral LD50 (rats; rat, in vivo, po): 3.2-7.1

CCCCCCCCCCCCCCCCCCO [Stearyl alcohol, octadecanol]
Boiling Point [1]: 210 °C | Toxicity (human; Table V): Non-toxic | Toxicity (human): non-toxic

CCCCCCC(C)O (centres unmarked) [2-octanol]
potency as inhibitor in mice [6]: among the most potent inhibitors | boiling points [1]: 180 ° | effectiveness against NNN or NNK [7]: against NNK

CCCO [propyl alcohol, n-propanol]
Acute Oral LD50 (rats; rats, oral): 5.4 q/kg

CC(C)O [isopropyl alcohol, isopropanol]
Acute Oral LD50 (rats; rats, oral): 5.84 q/kg

C[S+](C)[O-] [DMSO, dimethylsulfoxide]
nitrosamine delocalization / inhibition of nitrosamine localization [7]: found to delocalize nitrosamines | decrease of radioactivity in bronchial epithelium, oral vs ip ([5]; given orally): less decrease

CC1=C(/C=C/C(C)=C/C=C/C(C)=C/CO)C(C)(C)CCC1 [retinol]
response on the uptake of radioactivity in the bronchial epithelium [5]: minimal response

CCO [ethanol]
localization of radioactivity in salivary duct and bronchial epithelium and in both periportal and central areas of the liver ([3]; 20 min before iv [14C]NNN): reduced

CCCCCCO [1-hexanol]
potency as inhibitor in mice [6]: among the most potent inhibitors

NCCCCN [putrescine]
response on the uptake of radioactivity in the bronchial epithelium [5]: minimal response

CCCCCCCCCCCCO [Lauryl alcohol]
Boiling Point [1]: 255 °C | Toxicity (human; Table V): Low-toxicity

S=C=NCc1ccccc1 [benzyl isothiocyanate]
nitrosamine delocalization / inhibition of nitrosamine localization [7]: found to delocalize nitrosamines

CCCCCCCCCCO [n-Decyl alcohol]
Boiling Point [1]: 210 °C | Toxicity (human; Table V): Low-toxicity

CCCCCCC(C)O (centres unmarked) [Capryl alcohol]
Boiling Point [1]: 178 °C | Toxicity (human; Table V): Low toxity

CC(O)CCO (centres unmarked) [1,3 Butanediol]
Boiling Point [1]: 207 °C | Toxicity (human; Table V): Non-toxic

CCC(C)CO (centres unmarked) [active amyl alcohol, 2-methyl-1-butanol]
decrease in the localization of radioactivity in bronchial epithelium [4]: significant decrease | Acute Oral LD50 (rats; rats, oral): 4.9 q/kg

CCCCCCCCCCCCO [dodecanol, 98%, dodecanol]
Acute Oral LD50 (rats; rats, oral): 40 q/kg

CC(C)CCO [isoamyl alcohol]
decrease in the localization of radioactivity in bronchial epithelium [4]: significant decrease | Acute Oral LD50 (rats; rats, oral): 1.30 q/kg

O=Cc1ccc2c(c1)OCO2 [piperonal]
decrease in the localization of radioactivity in bronchial epithelium [5]: significant decrease

O=C1O[C@H]([C@@H](O)CO)C(O)=C1O [Vitamin C, ascorbic acid]
effect on formation of nitrosamines on epithelial membranes [2]: prevent the formation of nitrosamines

CC(C)(C(=O)c1cccnc1)c1cccnc1 [metyrapone]
decrease in the localization of radioactivity in bronchial epithelium [5]: significant decrease

OCCC(O)CO (centres unmarked) [1,2,4-ButanetrioI, 1,2,4-butanetriol]
Boiling Point [1]: 172 °C | Toxicity (human; Table V): Non-toxic

c1cn[nH]c1 [pyrazole]
nitrosamine delocalization / inhibition of nitrosamine localization [7]: found to delocalize nitrosamines | response on the uptake of radioactivity in the bronchial epithelium [5]: minimal response

CC1CCC(C(C)C)C(O)C1 (centres unmarked) [menthol, reference compound]
Boiling Point [1]: 216 °C | Toxicity (human; Table V): Flavor Agent | nitrosamine delocalization / inhibition of nitrosamine localization [7]: does not have the same nitrosamine blocking effect; also recorded: does not inhibit nitrosamine localization

[Cl-].[Na+] [sodium chloride, reference compound]
LD50 (rats; rats, oral, comparison): about 3.75 g/Kg

[Se] [Selenium]
effect on tumor development [2]: inhibit tumor development

CCCC(C)O (centres unmarked) [2-pentanol]
decrease in the localization of radioactivity in bronchial epithelium [4]: significant decrease

NCCCC(N)(C(=O)O)C(F)F (centres unmarked) [difluoromethylornithine]
response on the uptake of radioactivity in the bronchial epithelium [5]: minimal response

Methyl cyclohexanol
Boiling Point [1]: 173 °C

Dipropylene glycol monomethyl
Boiling Point [1]: 189 °C

CC(C)[C@@H]1CC[C@@H](C)C[C@H]1O [1-menthol]
response on the uptake of radioactivity in the bronchial epithelium [5]: minimal response

CCC(CC)CO [2-Ethyl butyl alcohol]
Boiling Point [1]: 149 °C | Toxicity (human; Table V): Low-toxicity

Vitamin A
effect on tumor development [2]: inhibit tumor development

CC1CCCC(O)C1 (centres unmarked) [3-methylcyclohexanol]
potency compared with cyclohexanol ([6]; inhalation): even more potent than cyclohexanol | potency as inhibitor in mice [6]: among the most potent inhibitors | boiling points [1]: 174 °

diaminopropane HCl
response on the uptake of radioactivity in the bronchial epithelium [5]: minimal response

CCCCCCCCCO [n-Nonyl alcohol]
Toxicity (human; Table V): Low-toxicity
